Measured values from article PMC8062851, “2-Methoxyestradiol and its derivatives inhibit store-operated Ca^2+ entry in T cells: Identification of a new and potent inhibitor” (Biochimica et Biophysica Acta. Molecular Cell Research, 2021).
“Also recorded” adds a separate entry of the source. Like-named read-outs stand apart in the source and are kept apart here.

Columns and labels:
KV channels = biological target: T1, KV channels (Homo sapiens, UniProt P22001); assay: Whole-cell patch clamp of KV channels in Jurkat T cells; assay type: cell-based; conditions: STX564 at 10 μM
T1 construct: About 10^5 Jurkat T-lymphocytes were placed into this recording chamber; endogenous in cells; host or cells: Jurkat T-lymphocytes (whole-cell patch clamp)

SOCE in Jurkat T cells = assay: Inhibition during activated SOCE (thapsigargin or anti-CD3 OKT3, 1 mM extracellular Ca2+) in Jurkat T cells; assay type: cell-based, human; conditions: for IC50: Homo sapiens, Jurkat, 1 mM extracellular Ca2+
Description: (§1) Jurkat T-lymphocytes, primary human CD4^+ T cells and H1299 cells were pelleted at 450 ×g for 5 min, rat TMBP at 300 ×g for 8 min at room temperature and were resuspended in 1 ml of either standard JMP medium (Jurkat, H1299 and human CD4^+ T cells) or standard DMEM based medium containing 10% fetal bovine serum (FBS) (v/v) (TMBP cells). Resting TMBP cells (day 5–7 after re-stimulation) after the second to fifth re-stimulation were thawed from liquid nitrogen 12 to 40 h prior to Fura2-loading. After pre-incubation for 5 min at 37 °C, cells were incubated with 4 μM Fura2-AM for 15 min at 37 °C. After addition of the dye, cells were kept in the dark. Afterwards, cells and the dye were diluted by addition of 4 ml standard medium and incubated for another 15 min. Cells were washed twice in Ca^2+ buffer (140 mM NaCl, 5 mM KCl, 1 mM MgSO4, 1 mM CaCl2, 1 mM NaH2PO4, 20 mM HEPES, 5.5 mM glucose; pH 7.4 (NaOH), sterile filtered) and were diluted to a concentration of 2*10^6 cells/ml. Subsequently, cells were kept at room temperature for 20 min for de-esterification before the start of the first measurement.
10^6 Jurkat T-lymphocytes, H1299 cells, TMBP cells or 4*10^6 primary human CD4^+ T cells were added into a 10 × 10 mm quartz glass cuvette (Hellma Analytics, Germany) that was placed into a fluorescence spectrophotometer (F-2710, Hitachi, Japan). In experiments using a Ca^2+ free/Ca^2+ re-addition protocol, cells were pelleted as described for Fura2 loading and Ca^2+ buffer was exchanged by 1 ml nominal Ca^2+ free buffer (140 mM NaCl, 5 mM KCl, 1 mM MgSO4, 1 mM NaH2PO4, 20 mM HEPES, 5.5 mM glucose; pH 7.4 (NaOH), sterile filtered) immediately before starting the measurement. The measurement was controlled by FL Solutions (Version 4.1, Hitachi High-Technologies Corporation). Fura2 was alternatively excited every 2 s at 340 ± 5 nm and 380 ± 5 nm, each 400 ms apart. Fluorescence intensity was measured at an emission wavelength of 495 ± 5 nm for both excitation wavelengths.
Finally, every measurement was calibrated using 0.1% (v/v) Triton X-100 to obtain a maximal ratio and 4 mM EGTA and 30 mM Tris to obtain a minimal ratio. […]
Besides the Ca^2+ free/Ca^2+ re-addition protocol, we also characterized the effect of STX564 in cells during activated SOCE in the presence of thapsigargin (TG, Fig. 2A,B) or upon stimulation via their TCR/CD3 complex (Fig. 2C). […]. […] Similarly, in Fig. 2C this effect of a partial or full recovery of SOCE was also observed, a few minutes after STX564 addition.

SOCE in rat TMBP cells = assay: SOCE inhibition, Ca2+ free/Ca2+ re-addition protocol in primary rat TMBP cells; assay type: cell-based
Description: as §1, with “Subsequently, cells were kept at room temperature for 20 min for de-esterification before the start of the first measurement.” left out
10^6 Jurkat T-lymphocytes, H1299 cells, TMBP cells or 4*10^6 primary human CD4^+ T cells were added into a 10 × 10 mm quartz glass cuvette (Hellma Analytics, Germany) that was placed into a fluorescence spectrophotometer (F-2710, Hitachi, Japan). […] Fluorescence intensity was measured at an emission wavelength of 495 ± 5 nm for both excitation wavelengths. […]

ORAI1 = biological target: T2, ORAI1 (Homo sapiens, UniProt Q96D31); assay: Live cell Ca2+ imaging of G-GECO1.2-ORAI1 transfected Jurkat T cells; assay type: cell-based; conditions: 10 μM
T2 construct: host or cells: Jurkat T-lymphocytes (electroporation)
Description: 12.5 ∗ 10^6 Jurkat T–lymphocytes were pelleted at 400 to 450 ×g for 5 min at room temperature and pellets were dissolved in 500 μl RPMI 1640 medium (Gibco) without phenol red containing L-glutamine, supplemented with 7.5% (v/v) NCS. 30 μg plasmid-DNA (G-GECO1.2-ORAI1) was transferred into a 4 mm electroporation cuvette (Biozym, Austria) and the Jurkat T-lymphocytes were added. G-GECO1.2-ORAI1 was a gift from Michael Cahalan, USA (Addgene plasmid # 73562). After an incubation of 5 min at 37 °C, cells were electroporated with 960 μF and 240 V (τ: […]). […]
17 to 22 h after electroporation, 5 ∗ 10^4 cells were pelleted at 400–450 ×g for 5 min at room temperature and cell pellets were dissolved in 50 μl nominal Ca^2+ free buffer. […] The fluorophore was excited at 488 nm every 2 s for 30 min and fluorescence was measured at 520 nm using Volocity (Version 6.3, Perkin Elmer).
Using ImageJ (Version 1.51 k, National Institutes of Health, USA) the pictures were analyzed for mean fluorescence in the outer ring of Jurkat T-lymphocytes employing ring-shaped regions of interest (ROIs). […] The mean background fluorescence values were subtracted from the signal in every image. For quantitative analysis, fluorescence intensities were normalized to the first fluorescence intensity (F/F0).

T1 sequence (P22001 whole entry): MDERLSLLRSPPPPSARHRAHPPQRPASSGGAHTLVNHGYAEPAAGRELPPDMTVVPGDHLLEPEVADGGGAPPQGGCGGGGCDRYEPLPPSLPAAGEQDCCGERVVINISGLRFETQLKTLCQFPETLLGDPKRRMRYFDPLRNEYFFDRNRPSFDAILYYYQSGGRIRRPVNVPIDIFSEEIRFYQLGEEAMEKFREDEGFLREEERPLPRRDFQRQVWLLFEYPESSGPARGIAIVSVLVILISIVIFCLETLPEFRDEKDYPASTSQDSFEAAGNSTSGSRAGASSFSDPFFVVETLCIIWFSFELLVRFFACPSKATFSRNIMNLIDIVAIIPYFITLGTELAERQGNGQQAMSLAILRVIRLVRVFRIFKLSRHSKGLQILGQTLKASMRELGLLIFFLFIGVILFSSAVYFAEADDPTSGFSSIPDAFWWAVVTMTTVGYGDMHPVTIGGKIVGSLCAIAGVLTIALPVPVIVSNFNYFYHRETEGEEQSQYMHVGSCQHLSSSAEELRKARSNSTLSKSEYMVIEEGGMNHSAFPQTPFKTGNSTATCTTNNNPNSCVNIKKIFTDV
T2 sequence (Q96D31 whole entry): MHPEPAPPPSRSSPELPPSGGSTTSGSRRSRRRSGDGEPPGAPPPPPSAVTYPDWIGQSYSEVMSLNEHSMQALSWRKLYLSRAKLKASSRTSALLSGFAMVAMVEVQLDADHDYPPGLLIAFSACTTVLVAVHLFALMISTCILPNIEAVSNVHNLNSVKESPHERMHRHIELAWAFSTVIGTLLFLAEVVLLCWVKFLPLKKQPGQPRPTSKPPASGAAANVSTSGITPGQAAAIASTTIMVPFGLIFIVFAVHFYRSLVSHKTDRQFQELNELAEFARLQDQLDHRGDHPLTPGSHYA

For `CCc1cc2c(cc1OS(N)(=O)=O)CC[C@@H]1[C@@H]2CC[C@]2(C)[C@@H](CC#N)CC[C@@H]12` [STX564, 2-ethyl-3-sulfamoyloxy-17β-cyanomethylestra-1,3,5(10)-triene], the “effect on KV channel currents” value (KV channels) was “does not inhibit KV channels; also recorded: no inhibition; also recorded: does not inhibit the KV1.3 channel”, the IC50 (SOCE in Jurkat T cells; read-out: IC50 of SOCE inhibition during active SOCE, Jurkat T cells stimulated by 1 μM thapsigargin (TG)) was 3000 nM and the IC50 (SOCE in Jurkat T cells; read-out: IC50 of SOCE inhibition during active SOCE, Jurkat T cells stimulated by 1 μg/ml αCD3 (OKT3)) was 2000 nM. The “extent of inhibition when added during activated SOCE” value (SOCE in Jurkat T cells; Jurkat T cells, TG or TCR/CD3 stimulation) was “only partial inhibition”, the IC50 (SOCE in rat TMBP cells) was 800 nM and the “SOCE by ORAI1 (G-GECO1.2-ORAI1 fluorescence)” value (ORAI1) was “almost completely diminished”.
